These results are taken from ChEMBL document CHEMBL5346903, “Discovery of novel and bioavailable histone deacetylases and cyclin-dependent kinases dual inhibitor to impair the stemness of leukemia cells” (Eur J Med Chem, 2023).

Series [1] deals with HL-60. Nature of the series: Induction of apoptosis in human HL-60 cells assessed as necrotic cells at 5 uM incubated for 48 hrs by annexin V-FITC/PI satining based flow cytometry (reference value: 0.04 %). It is filed as functional.
The subject of series [2] is HL-60. As to the kind of experiment: Induction of apoptosis in human HL-60 cells assessed as early apoptotic cells at 1.2 uM incubated for 48 hrs by annexin V-FITC/PI satining based flow cytometry (reference value: 2.4 %). The format is functional. (Flow cytometry measures light scatter and fluorescence of single cells or particles in a stream.)
For series [3], the system named is HL-60. As to the kind of experiment: Induction of apoptosis in human HL-60 cells assessed as early apoptotic cells at 5 uM incubated for 48 hrs by annexin V-FITC/PI satining based flow cytometry (reference value: 2.4 %). It is filed as functional.
Series [4] relates to U-937. As to the kind of experiment: Induction of apoptosis in human U-937 cells assessed as necrotic cells at 1.2 uM incubated for 48 hrs by annexin V-FITC/PI satining based flow cytometry (reference value: 0.102 %). The format is functional.
Series [5] has as its system HL-60. As to the kind of experiment: Induction of apoptosis in human HL-60 cells assessed as necrotic cells at 2.5 uM incubated for 48 hrs by annexin V-FITC/PI satining based flow cytometry (reference value: 0.04 %). It is filed as functional.
The test system of series [6] is U-937. As to the kind of experiment: Induction of apoptosis in human U-937 cells assessed as early apoptotic cells at 5 uM incubated for 48 hrs by annexin V-FITC/PI satining based flow cytometry (reference value: 1.93 %). It is filed as functional.
The subject of series [7] is HL-60. Nature of the series: Induction of apoptosis in human HL-60 cells assessed as viable cells at 0.6 uM incubated for 48 hrs by annexin V-FITC/PI satining based flow cytometry (reference value: 94.7 %). As to conditions: read-out: Activity. It is filed as functional.
Series [8] concerns U-937. As to the kind of experiment: Induction of differentiation in human U-937 cells assessed as increase in CD11b positive cells at 2.5 uM incubated for 48 hrs by FITC staining based flow cytometry (reference value: […] %). It is filed as functional.
Series [9] concerns HL-60. Nature of the series: Induction of apoptosis in human HL-60 cells assessed as viable cells at 5 uM incubated for 48 hrs by annexin V-FITC/PI satining based flow cytometry (reference value: 94.7 %). The format is functional. The following applies: read-out: Activity.
The subject of series [10] is HL-60. Nature of the series: Induction of differentiation in human HL-60 cells assessed as increase in CD11b positive cells at 2.5 uM incubated for 24 hrs by FITC staining based flow cytometry (reference value: 1.12 %). The format is functional.
For series [11], the system named is HL-60. As to the kind of experiment: Induction of apoptosis in human HL-60 cells assessed as necrotic cells at 0.6 uM incubated for 48 hrs by annexin V-FITC/PI satining based flow cytometry (reference value: 0.04 %). The format is functional.
The test system of series [12] is U-937. As to the kind of experiment: Induction of apoptosis in human U-937 cells assessed as necrotic cells at 5 uM incubated for 48 hrs by annexin V-FITC/PI satining based flow cytometry (reference value: 0.102 %). The format is functional.
Series [13] deals with HL-60. As to the kind of experiment: Induction of differentiation in human HL-60 cells assessed as increase in CD11b positive cells at 5 uM incubated for 24 hrs by FITC staining based flow cytometry (reference value: 1.12 %). It is filed as functional.
Series [14] relates to U-937. Nature of the series: Induction of apoptosis in human U-937 cells assessed as necrotic cells at 0.6 uM incubated for 48 hrs by annexin V-FITC/PI satining based flow cytometry (reference value: 0.102 %). It is filed as functional.
Series [15] is described as follows: MRT in Sprague-Dawley rat at 25 mg/kg, po measured upto 8 hrs by LC/MS-MS analysis. It is filed as ADME, organism-based. The following applies: in vivo.
The target of series [16] is Cyclin-Y/Cyclin-dependent kinase 16 (Homo sapiens) (UniProt Q00536+Q8ND76). As to conditions: dose 100.0 nM, time 140.0 min.
Series [17] concerns HL-60. As to the kind of experiment: Induction of apoptosis in human HL-60 cells assessed as viable cells at 1 uM incubated for 48 hrs by annexin V-FITC/PI satining based flow cytometry (reference value: 97.4 %). It is filed as functional. The following applies: read-out: Activity.
In series [18] the target is T1, Cyclin-dependent kinase 5/CDK5 activator 1 (Homo sapiens) (UniProt Q00535+Q15078). Nature of the series: Inhibition of CDK5/p25NCK (unknown origin) at 100 nM preincubated for 20 mins followed by [gamma-33P]ATP addition measured after 120 mins in presence of ATP by Hot-SpotSM kinase assay relative to control. As to conditions: time 140.0 min. It is filed as protein-complex assay.
T1 sequence (Q00535 whole entry): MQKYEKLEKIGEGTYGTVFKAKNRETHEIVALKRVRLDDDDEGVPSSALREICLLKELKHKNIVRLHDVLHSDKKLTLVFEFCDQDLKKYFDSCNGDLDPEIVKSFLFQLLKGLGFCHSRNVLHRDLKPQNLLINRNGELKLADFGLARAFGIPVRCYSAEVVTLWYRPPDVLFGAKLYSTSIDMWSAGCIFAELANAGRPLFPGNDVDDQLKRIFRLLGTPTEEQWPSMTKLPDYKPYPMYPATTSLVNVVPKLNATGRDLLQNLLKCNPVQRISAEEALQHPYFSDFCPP
T1 sequence (Q15078 99-307 partner limits assumed): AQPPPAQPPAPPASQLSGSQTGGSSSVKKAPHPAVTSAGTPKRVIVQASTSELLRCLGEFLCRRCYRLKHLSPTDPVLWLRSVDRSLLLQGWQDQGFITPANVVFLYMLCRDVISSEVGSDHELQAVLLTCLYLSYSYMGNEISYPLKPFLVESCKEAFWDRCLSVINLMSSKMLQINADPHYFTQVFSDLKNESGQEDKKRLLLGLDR

For series [19], the target named is T2, Histone deacetylase 2 (Homo sapiens, UniProt Q92769). Nature of the series: Inhibition of recombinant human HDAC2 using HDAC substrate incubated for 30 mins by fluorescence based assay.
T2 sequence (Q92769 whole entry): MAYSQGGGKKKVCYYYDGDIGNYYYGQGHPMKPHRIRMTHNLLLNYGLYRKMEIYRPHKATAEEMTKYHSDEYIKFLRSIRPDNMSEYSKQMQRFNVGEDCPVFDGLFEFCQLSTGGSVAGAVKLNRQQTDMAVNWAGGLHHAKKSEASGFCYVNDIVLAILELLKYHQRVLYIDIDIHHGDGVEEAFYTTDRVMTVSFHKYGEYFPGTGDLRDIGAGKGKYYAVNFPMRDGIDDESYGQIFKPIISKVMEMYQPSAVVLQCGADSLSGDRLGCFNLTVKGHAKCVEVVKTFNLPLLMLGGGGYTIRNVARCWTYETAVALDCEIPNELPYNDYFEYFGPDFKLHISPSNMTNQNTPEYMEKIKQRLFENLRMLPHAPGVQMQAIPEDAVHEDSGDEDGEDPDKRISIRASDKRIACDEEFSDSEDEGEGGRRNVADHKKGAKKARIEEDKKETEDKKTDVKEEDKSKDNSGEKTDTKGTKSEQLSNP
Series [20] has as its system U-937. As to the kind of experiment: Induction of differentiation in human U-937 cells assessed as increase in CD11b positive cells at 1 uM incubated for 48 hrs by FITC staining based flow cytometry (reference value: 2.72 %). The format is functional.
Series [21] concerns U-937. Nature of the series: Induction of apoptosis in human U-937 cells assessed as necrotic cells at 0.5 uM incubated for 48 hrs by annexin V-FITC/PI satining based flow cytometry (reference value: 1.96 %). The format is functional.
Series [22] is described as follows: Cmax in Sprague-Dawley rat at 5 mg/kg, iv measured upto 6 hrs by LC/MS-MS analysis. The format is ADME, organism-based. Set-up: time < 6 hrs, dose 5 mg/kg, route iv. The following applies: in vivo.
For series [23], the target named is T1, Cyclin-dependent kinase 5/CDK5 activator 1 (Homo sapiens). Nature of the series: Inhibition of CDK5/p35NCK (unknown origin) at 100 nM preincubated for 20 mins followed by [gamma-33P]ATP addition measured after 120 mins in presence of ATP by Hot-SpotSM kinase assay relative to control. The following applies: time 140.0 min. It is filed as protein-complex assay.

In series [24] the target is CDK2/Cyclin A2 (Homo sapiens) (UniProt P24941+P20248). As to conditions: dose 100.0 nM, time 140.0 min.
Series [25] has as its system U-937. As to the kind of experiment: Induction of apoptosis in human U-937 cells assessed as early apoptotic cells at 0.5 uM incubated for 48 hrs by annexin V-FITC/PI satining based flow cytometry (reference value: 0.945 %). It is filed as functional.
Series [26] concerns U-937. Nature of the series: Induction of apoptosis in human U-937 cells assessed as necrotic cells at 0.2 uM incubated for 48 hrs by annexin V-FITC/PI satining based flow cytometry (reference value: 1.96 %). The format is functional.
The target of another series is Histone deacetylase 3 (Homo sapiens, UniProt O15379). Nature of the series: Inhibition of HDAC3 in human nuclear extract using Ac-Arg-Gly-Lys(Ac)-AMC as substrate at 1 uM incubated overnight by fluorescence based assay relative to control. It is filed as subcellular. The following applies: HeLa, Nucleus.
Chain of Histone deacetylase 3 (O15379 whole entry): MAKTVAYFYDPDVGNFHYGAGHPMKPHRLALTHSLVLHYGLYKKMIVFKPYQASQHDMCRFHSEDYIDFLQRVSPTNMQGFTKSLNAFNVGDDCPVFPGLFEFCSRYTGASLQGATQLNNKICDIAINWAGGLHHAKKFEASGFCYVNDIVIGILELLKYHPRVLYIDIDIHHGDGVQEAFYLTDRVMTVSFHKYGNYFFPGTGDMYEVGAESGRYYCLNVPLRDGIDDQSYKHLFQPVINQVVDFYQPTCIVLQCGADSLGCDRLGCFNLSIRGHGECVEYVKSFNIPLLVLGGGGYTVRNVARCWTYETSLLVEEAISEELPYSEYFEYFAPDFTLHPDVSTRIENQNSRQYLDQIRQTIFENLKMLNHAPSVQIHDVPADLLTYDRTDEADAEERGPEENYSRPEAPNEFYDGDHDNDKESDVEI
A short description of series [27]: AUC in Sprague-Dawley rat at 5 mg/kg, iv measured upto 6 hrs by LC/MS-MS analysis. Also noted: dose 5 mg/kg, time < 6 hrs, route iv. The format is ADME, organism-based. The following applies: in vivo.
Series [28] concerns HL-60. Nature of the series: Induction of apoptosis in human HL-60 cells assessed as necrotic cells at 1 uM incubated for 48 hrs by annexin V-FITC/PI satining based flow cytometry (reference value: 0.00 %). It is filed as functional.
Series [29] deals with HL-60. As to the kind of experiment: Induction of apoptosis in human HL-60 cells assessed as late apoptotic cells at 1 uM incubated for 48 hrs by annexin V-FITC/PI satining based flow cytometry (reference value: 1.33 %). It is filed as functional.
In series [30] the test system is HL-60. Nature of the series: Induction of apoptosis in human HL-60 cells assessed as early apoptotic cells at 2 uM incubated for 48 hrs by annexin V-FITC/PI satining based flow cytometry (reference value: 1.24 %). It is filed as functional.
For series [31], the target named is T2, Histone deacetylase 2. Nature of the series: Inhibition of HDAC2 in human nuclear extract using Ac-Arg-Gly-Lys(Ac)-AMC as substrate at 1 uM incubated overnight by fluorescence based assay relative to control. As to conditions: HeLa, Nucleus. The format is subcellular.
Series [32] has as its system HL-60. Nature of the series: Induction of apoptosis in human HL-60 cells assessed as viable cells at 0.2 uM incubated for 48 hrs by annexin V-FITC/PI satining based flow cytometry (reference value: 97.4 %). The format is functional. The following applies: read-out: Activity.

Regarding `Nc1cc(F)ccc1NC(=O)c1ccc(CNC(=O)/C=C/c2cccnc2)cc1` [TUCIDINOSTAT], the Activity was determined as 0.353% in the series with HL-60 [1]; 3.72% in the series on HL-60 [2]; 8.11% in the series on HL-60 [3]; 0.142% with U-937 [4]; 0.05% in the series on HL-60 [5]; 4.66% in the series with U-937 [6]. Moreover, the Activity in the series with U-937 [8] is recorded as 5.59%; in the series on HL-60 [10], 53.5%; in the series with HL-60 [11] it was 0.07%; in the series with U-937 [12] it was 0.117%; with HL-60 [13], 71.1%; in the series on U-937 [14], 0.072%. Also, the viability at 0.6 µM in the series with HL-60 [7] was 95.1%. For the same molecule, in the series with HL-60 [9], the viability at 5 µM was 18.1%.

By MRT is commonly meant the average time that molecules of a dose stay in the body. As a reminder, the inhibition is the relative decrease from the control value, in per cent. For orientation: IC50 means the midpoint of a concentration-inhibition curve. One may read the Cmax as the highest concentration seen after dosing. As a reminder, the AUC is concentration integrated over time. A lower AUC goes with low exposure. As for `Nc1ccccc1NC(=O)c1ccc(NC(=O)c2n[nH]cc2NC(=O)c2c(Cl)cccc2Cl)cc1`, in series [15], the MRT was found to be 1.27 h. Besides, the inhibition in [16] worked out at 35.4%; in series [18] it was 95.2%; in [23] it was 90.7%; in [24], 69.1%; against Histone deacetylase 3, 100%; on Histone deacetylase 2 [31], 100%. The viability at 1 µM with HL-60 [17] was determined as 43.5%. At Histone deacetylase 2 [19], the IC50 came to 98.8 nM. The Activity is given as 6% in the series on U-937 [20]; 4.15% in the series with U-937 [21]; 1.99% in the series on U-937 [25]; 2.9% in the series on U-937 [26]; 0.445% in the series with HL-60 [28]; 39% in the series on HL-60 [29]. Moreover, the Activity with HL-60 [30] came out at 35.4%. Moreover, the peak level in series [22] (Cmax) was 3640 ng/mL. In addition, in [27], the AUC is 836 ng·h/mL. Further, the viability at 0.2 µM in the series on HL-60 [32] worked out at 96.4%.
